What follows are compounds tested against P70S6K (T412E mutant) (Homo sapiens (Human), UniProt P23443, T412E) (assay: P70S6K enzyme assay). Conditions: 3 nM P70S6K T412E mutant, 24 μM ATP, 1 μM FITC-AHA-AKRRRLSSLRA-OH substrate peptide, 90 min at 25° C.
Sequence of P70S6K (T412E mutant) (P23443 whole entry T412E): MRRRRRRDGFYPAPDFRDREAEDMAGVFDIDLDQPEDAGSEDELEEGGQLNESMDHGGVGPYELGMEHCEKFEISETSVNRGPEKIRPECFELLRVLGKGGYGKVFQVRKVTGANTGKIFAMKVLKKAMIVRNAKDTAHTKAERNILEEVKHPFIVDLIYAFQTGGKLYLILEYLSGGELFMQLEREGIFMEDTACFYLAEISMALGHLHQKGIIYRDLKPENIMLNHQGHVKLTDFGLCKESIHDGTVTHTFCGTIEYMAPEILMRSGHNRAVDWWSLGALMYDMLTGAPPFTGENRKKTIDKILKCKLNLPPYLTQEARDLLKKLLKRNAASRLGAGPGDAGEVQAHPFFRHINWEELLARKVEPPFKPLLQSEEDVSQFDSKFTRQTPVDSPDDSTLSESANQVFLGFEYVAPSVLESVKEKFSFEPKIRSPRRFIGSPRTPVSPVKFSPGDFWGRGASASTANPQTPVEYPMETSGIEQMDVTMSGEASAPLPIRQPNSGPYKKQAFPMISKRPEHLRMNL
Assay type: biochemical
Procedure: The IC50 values reported for the compounds in the Experimental section were derived from the following protocol for the p70S6K enzyme assay.
P70S6K inhibitor compounds were diluted and plated in 96 well plates. A reaction mixture including the following components was then added to the compound plate to initiate the enzyme reaction; P70S6K (3 nM, T412E mutant, Millipore) was mixed with 24 μM ATP in an assay buffer containing 100 mM Hepes (pH 7.5), 5 mM MgCl2, 1 mM DTT, 0.015% Brij and 1 μM of the substrate peptide FITC-AHA-AKRRRLSSLRA-OH (derived from the S6 ribosomal protein sequence, FITC=fluorescein isothiocyanate, AHA=6-aminohexanoic acid). The reaction was incubated for 90 min at 25° C., before the addition of 10 mM EDTA to stop the reaction. The proportion of substrate and product (phosphorylated) peptide was analysed on a Caliper Life Sciences Lab Chip 3000, using a pressure of −1.4 psi, and upstream and downstream voltages of −3000 and −700 respectively. Product peaks were resolved before substrate peaks on the resulting chromatograms.
With `N#Cc1c(N)ncnc1N1CCC(N)(C(=O)N[C@@H](CCO)c2ccncc2)CC1` [Example 231, 4-Amino-1-(6-amino-5-cyano-pyrimidin-4-yl)-piperidine-4-carboxylic acid ((S)-3-hydroxy-1-pyridin-4-yl-propyl)-amide] the IC50 was 3600 nM.
With `Nc1ncnc(N2CCC(C(O)c3ccc(-c4ccc(F)cc4)cc3)CC2)c1-c1ccc(F)cc1` (stereo not shown) [Example 139] the IC50 was 17 nM.
`Nc1ncnc(N2CCN(C(CN3CCC3)c3ccc(F)cc3Cl)CC2)c1-c1cn[nH]c1` (stereo not shown) [Example 137, 6-{4-[2-Azetidin-1-yl-1-(2-chloro-4-fluoro-phenyl)-ethyl]-piperazin-1-yl}-5-(1H-pyrazol-4-yl)-pyrimidin-4-ylamine] showed an IC50 of 3100 nM.
`NCC(c1ccc(C(F)(F)F)cc1)N1CCN(c2ncnc(N)c2-c2cc[nH]c2)CC1` (stereo not shown) [Example 37, 6-(4-(2-amino-1-(4-(trifluoromethyl)phenyl)ethyl)piperazin-1-yl)-5-(1H-pyrrol-3-yl)pyrimidin-4-amine] showed an IC50 of 5.8 nM.
In the case of `NCC(c1ccc(C(F)(F)F)cc1)C1CCN(c2ncnc(N)c2-c2cnoc2)CC1` (stereo not shown) [Example 59, 6-(4-(2-amino-1-(4-(trifluoromethyl)phenyl)ethyl)piperidin-1-yl)-5-(isoxazol-4-yl)pyrimidin-4-amine], the IC50 is reported as 140 nM.
Work on `CS(=O)(=O)c1ccc(C(CN)N2CCN(c3ncnc(N)c3-c3cn[nH]c3)CC2)cc1` (stereo not shown) [Example 185, 6-(4-(2-amino-1-(4-(methylsulfonyl)phenyl)ethyl)piperazin-1-yl)-5-(1H-pyrazol-4-yl)pyrimidin-4-amine] yielded an IC50 of 60 nM.
`C[C@H](NC(=O)C1(N)CCN(c2ncnc(N)c2C(N)=O)CC1)c1ccc(Cl)cc1` [Example 244, 4-Amino-6-{4-amino-4-[(S)-1-(4-chloro-phenyl)-ethylcarbamoyl]-piperidin-1-yl}-pyrimidine-5-carboxylic acid amide] gave an IC50 of 20000 nM.
With `Nc1ncnc(N2CCN([C@H](CN3CCC3)c3cccc(F)c3)CC2)c1-c1ccc(F)cc1` [Example 102, 6-{4-[(S)-2-Azetidin-1-yl-1-(3-fluoro-phenyl)-ethyl]-piperazin-1-yl}-5-(4-fluoro-phenyl)-pyrimidin-4-ylamine] the IC50 was 1400 nM.
`COC[C@H](NC(=O)C1(N)CCN(c2ncnc(N)c2-c2cn[nH]c2)CC1)c1ccc(Cl)cc1` [Example 240, 4-Amino-1-[6-amino-5-(1H-pyrazol-4-yl)-pyrimidin-4-yl]-piperidine-4-carboxylic acid [(R)-1-(4-chloro-phenyl)-2-methoxy-ethyl]-amide] showed an IC50 of 100 nM.
`Nc1cc(N2CCN(C(CN3CCCCC3)c3cccc(C(F)(F)F)c3)CC2)ncn1` (stereo not shown) [Example 71, 6-{4-[1-(3-trifluoromethyl-phenyl)-2-piperidin-1-yl-ethyl]-piperazin-1-yl}-pyrimidin-4-ylamine] was tested, and the IC50 was > 1000 nM.
`Nc1ncnc(N2CCN(C(CN3CCCC3)c3ccc(F)cc3)CC2)c1Br` (stereo not shown) [Example 77, 5-Bromo-6{4-[1-(4-fluorophenyl)-2-pyrrolidin-1-yl-ethyl]-piperazin-1-yl}-pyrimidin-4-ylamine] showed an IC50 of 640 nM.
Work on `Nc1ncnc(N2CCC(N)(C(=O)N[C@@H](CCO)c3ccccc3)CC2)c1Cl` [Example 228, 4-Amino-1-(6-amino-5-chloro-pyrimidin-4-yl)-piperidine-4-carboxylic acid ((S)-3-hydroxy-1-phenyl-propyl)-amide] yielded an IC50 of 2800 nM.
`COc1ccc([C@H](CCO)NC(=O)C2(N)CCN(c3ncnc(N)c3C#N)CC2)cc1` [Example 229, 4-Amino-1-(6-amino-5-cyano-pyrimidin-4-yl)-piperidine-4-carboxylic acid [(S)-3-hydroxy-1-(4-methoxy-phenyl)-propyl]-amide] gave an IC50 of 450 nM.
With `Cn1ccnc1C(c1ccccc1)N1CCN(c2ncnc(N)c2Br)CC1` (stereo not shown) [Example 29, 5-Bromo-6-{4-[(1-methyl-1H-imidazol-2-yl)-phenyl-methyl]-piperazin-1-yl}-pyrimidin-4-ylamine] the IC50 was > 1000 nM.
For `Nc1ncnc(N2CCC(Cc3ccc(-c4ccc(F)cc4)cc3)CC2)c1-c1ccc(F)cc1` [Example 50, 5-(4-Fluorophenyl)-6{4-(4-(4-fluorophenyl)benzyl)-piperidin-1-yl}pyrimidin-4-amine], the IC50 was 450 nM.
`COc1c(N)ncnc1N1CCN(C(CN)c2ccc(C(F)(F)F)cc2)CC1` (stereo not shown) [Example 31, 6-(4-(2-amino-1-(4-(trifluoromethyl)phenyl)ethyl)piperazin-1-yl)-5-methoxypyrimidin-4-amine] was tested, and the IC50 was 40 nM.
For `Nc1ncnc(N2CCN(C(CCN3CCC3)c3ccc(Cl)cc3)CC2)c1-c1ccc(F)cc1` (stereo not shown) [Example 112, 6-{4-[3-Azetidin-1-yl-1-(4-chloro-phenyl)-propyl]-piperazin-1-yl}-5-(4-fluoro-phenyl)-pyrimidin-4-ylamine], the IC50 was 460 nM.
With `N#CC(c1ccc(C(F)(F)F)cc1)N1CCN(c2ncnc(N)c2Br)CC1` (stereo not shown) [Example 167, [4-(6-Amino-5-bromo-pyrimidin-4-yl)-piperazin-1-yl]-(4-trifluoromethyl-phenyl)-acetonitrile] the IC50 was > 1000 nM.
Compound `Nc1ncnc(N2CCN(C(CN3CCCCC3)c3cccc(F)c3)CC2)c1-c1ccc(F)cc1` (stereo not shown) [Example 64, 5-(4-Fluorophenyl)-6{4-[1-(3-fluoro-phenyl)-2-piperidin-1-yl-ethyl]-piperazin-1-yl}-pyrimidin-4-ylamine] has an IC50 of 50 nM.
`Nc1ncnc(N2CCN(C(CN3CCC3)c3cccc(C(F)(F)F)c3Cl)CC2)c1-c1cn[nH]c1` (stereo not shown) [Example 134, 6-{4-[2-Azetidin-1-yl-1-(2-chloro-3-trifluoromethyl-phenyl)-ethyl]-piperazin-1-yl}-5-(1H-pyrazol-4-yl)-pyrimidin-4-ylamine] was tested, and the IC50 was 300 nM.
Compound `Nc1ncnc(N2CCC(N)(CNC(=O)c3ccc(F)cc3F)C2)c1-c1ccc(C(F)(F)F)cc1` (stereo not shown) [Example 202, N-{3-Amino-1-[6-amino-5-(4-trifluoromethyl-phenyl)-pyrimidin-4-yl]-pyrrolidin-3-ylmethyl}-2,4-difluoro-benzamide] has an IC50 of 9.1 nM.
Work on `Nc1ncnc(N2CCN(C(CN3CCC3)c3ccc(C(F)(F)F)c(F)c3)CC2)c1-c1cn[nH]c1` (stereo not shown) [Example 127, 6-{4-[2-Azetidin-1-yl-1-(3-fluoro-4-trifluoromethyl-phenyl)-ethyl]-piperazin-1-yl}-5-(1H-pyrazol-4-yl)-pyrimidin-4-ylamine] yielded an IC50 of 550 nM.
With `NCC(c1ccc(F)cc1)N1CCN(c2ncnc(N)c2-c2ccc(F)cc2)CC1` (stereo not shown) [Example 159, 6-{4-[2-Amino-1-(4-fluoro-phenyl)-ethyl]-piperazin-1-yl}-5-(4-fluoro-phenyl)-pyrimidin-4-ylamine] the IC50 was 4.4 nM.
Compound `COC[C@H](NC(=O)C1(N)CCN(c2ncnc(N)c2Cl)CC1)c1ccc(Cl)cc1` [Example 234, 4-Amino-1-(6-amino-5-chloro-pyrimidin-4-yl)-piperidine-4-carboxylic acid [(R)-1-(4-chloro-phenyl)-2-methoxy-ethyl]-amide] has an IC50 of 560 nM.
Compound `CCOc1c(N)ncnc1N1CCN(C(CN)c2ccc(C(F)(F)F)cc2)CC1` (stereo not shown) [Example 32, 6-(4-(2-amino-1-(4-(trifluoromethyl)phenyl)ethyl)piperazin-1-yl)-5-ethoxypyrimidin-4-amine] has an IC50 of 48.5 nM.
In the case of `N#CC(c1ccc(Cl)c(Cl)c1)N1CCN(c2ncnc(N)c2-c2ccc(F)cc2)CC1` (stereo not shown) [Example 156, {4-[6-Amino-5-(4-fluoro-phenyl)-pyrimidin-4-yl]-piperazin-1-yl}-(3,4-dichloro-phenyl)-acetonitrile], the IC50 is reported as 130 nM.
In the case of `Nc1ncnc(N2CCN(C(CN3CCCCC3)c3ccc(F)cc3)CC2)c1Br` (stereo not shown) [Example 72, 5-Bromo-6{4-[1-(4-fluoro-phenyl)-2-piperidin-1-yl-ethyl]-piperazin-1-yl}-pyrimidin-4-ylamine], the IC50 is reported as > 1000 nM.
`Cn1ccc(-c2c(N)ncnc2N2CCN(C(CNC(C)(C)C(C)(C)O)c3ccc(C(F)(F)F)cc3)CC2)n1` (stereo not shown) [Example 44, 3-[2-{4-[6-Amino-5-(1-methyl-1H-pyrazol-3-yl)-pyrimidin-4-yl]-piperazin-1-yl}-2-(4-trifluoromethyl-phenyl)-ethylamino]-2,3-dimethyl-butan-2-ol] was tested, and the IC50 was 150 nM.
`N#Cc1c(N)ncnc1N1CCC(N)(CNC(=O)c2ccc(F)cc2F)C1` (stereo not shown) [Example 196, N-[3-Amino-1-(6-amino-5-cyano-pyrimidin-4-yl)-pyrrolidin-3-ylmethyl]-2,4-difluoro-benzamide] was tested, and the IC50 was 50 nM.
Compound `Nc1ncnc(N2CCC(C(NCC3CCNCC3)c3ccc(F)cc3)CC2)c1-c1ccc(F)cc1` (stereo not shown) [Example 151] has an IC50 of 200 nM.
`Nc1ncnc(N2CCC(C(O)c3ccc(F)cc3)CC2)c1-c1ccc(F)cc1` (stereo not shown) [Example 140] was tested, and the IC50 was 4.6 nM.
In the case of `CC[C@H](NC(=O)C1(N)CCN(c2ncnc(N)c2C#N)CC1)c1ccc(Cl)cc1` [Example 219, 4-Amino-1-(6-amino-5-cyano-pyrimidin-4-yl)-piperidine-4-carboxylic acid [(S)-1-(4-chloro-phenyl)-propyl]-amide], the IC50 is reported as 140 nM.
With `NCC(c1ccc(C(F)(F)F)cc1)C1CCN(c2ncnc(N)c2-c2cn[nH]c2)CC1` (stereo not shown) [Example 55, 6-(4-(2-amino-1-(4-(trifluoromethyl)phenyl)ethyl)piperidin-1-yl)-5-(1H-pyrazol-4-yl)pyrimidin-4-amine] the IC50 was 5.2 nM.
`N#CC(c1ccc(Cl)cc1)N1CCN(c2ncnc(N)c2-c2ccc(F)cc2)CC1` (stereo not shown) [Example 162, {4-[6-Amino-5-(4-fluoro-phenyl)-pyrimidin-4-yl]-piperazin-1-yl}-(4-chloro-phenyl)-acetonitrile] was tested, and the IC50 was 68 nM.

Reference: patent US9321760B2 (Merck Patent GmbH, priority 2011, dated 2016)
